Laboratory results taken from patent publication US11266170B2, “Sweetener and flavor compositions, methods of making and methods of use thereof” (EPC Natural Products Co., Ltd., priority 2018, dated 2022).

Columns and labels:
panel of four people = experiment: Sensory test of Maillard reaction series in glycerol, buffer or dry conditions (Examples 50, 52); format: in vivo; design: key to Intensity of Smell: “+” for slight; “++” for moderate; “+++” for very strong
Procedure: The reaction partner (amino acid, carbohydrate source) were dissolved/suspended in the reaction solvent and transferred into a glass beaker filled with sand pre-heated for at least 30 minutes at the reaction temperature in a drying oven. After the planned reaction time, the vials were transferred into ice water. After cooling to room temperature, sensory analysis and analytical characterization was performed.
All tests were performed with negative controls (only reaction solvent, reaction solvent and amino acid, reaction solvent and carbohydrate).
Another series of experiments was performed in […] filled with 10 ml of reaction solvent. The reaction partner (amino acid, carbohydrate source) were dissolved/suspended in the reaction solvent and reflux heated for the time given on heating plates. After the planned reaction time, the flasks were transferred into ice water. After cooling to room temperature, sensory analysis and analytical characterization was performed.
Another series of experiments was performed in 20 ml sealed Pyrex vials. The reaction partner (amino acid, carbohydrate source) were finely grinded and mixed, then transferred in the Pyrex vial. A small volume of water was added and the reaction initiated in a drying oven. After the planned reaction time, the vials were transferred into ice water. After cooling to room temperature, sensory analysis and analytical characterization was performed.
For evaluation of the taste profile, the samples were tested by a panel of four people. 1 trained taster tasted independently the samples first. The taster was asked to describe the taste profile and score 0-5 according to the increasing sugar likeness, bitterness, aftertaste and lingering taste profiles. The first taster was allowed to re-taste, and then make notes for the sensory attributes perceived. Afterwards, another 3 tasters tasted and the attributes were noted and discussed openly to find a suitable description. In case that more than 1 taster disagreed with the results, the tasting was repeated. In some sensory test results (above), the taste rating was expressed by “+”, which means the intensity of the factors is shown by three levels. “+” for slight, “++” for moderate and “+++” for very strong.

3 persons = experiment: Sensory analysis of odor/smell, color and taste of reacted samples (Examples 55-62); format: in vivo; conditions: Example 57, after reaction; 10 ml KH2PO4, pH 7.8, 2.5 h, 120 °C
Procedure: The reaction partners were dissolved in water and then warmed glycerin (60° C.) was added. […]
The taste test was performed as in Example 38.
All samples were assessed at 22° C. after the Maillard reaction was stopped by placing the sealed vials in an ice bath. After 20 minutes in the ice bath the sealed vials were put in a water bath set to 22° C.
The odor/smell was assessed independently by 3 persons; the final description was agreed after discussion. […] The taste was assessed independently by 3 persons either in the original samples or after appropriate dilution to achieve relevant concentrations of sugars and steviol-glycosides (i.e. 5-9% SE); the final description was agreed after discussion.

[1] = Kinetics of reaction of Phe with Reb-A, Gluc, Xyl, Suc in dependence of pH-conditions, HPLC/MS (Example 55); format: physicochemical
Procedure: Quantitative evaluation was performed using external standardization.
Kinetics of Reaction in dependence of pH-conditions

[2] = Assay to test reducing power (iron-III reduction), Example 64; format: biochemical; conditions: 100° C., 0-5.0 h, pH 7.8; compared with glucose or xylose
[3] = Assay to test DPPH radical-scavenging activity, Example 65; format: biochemical; conditions: 100° C., 0-5.0 h, pH 7.8; compared with glucose or xylose
Procedure: 1 mg 1,1-Diphenyl-2-picrylhydrazyl radical (DPPH)/ml ethanol, dilution to assay concentration were prepared in ethanol (40 μg/mL); Calibration samples were prepared with Ascorbic acid in a concentration of 0-10 μg/mL; as a negative control sample, water was used.
Samples in aqueous solution were used as such or diluted with water.
A 0.1 ml sample (or calibration standard) was mixed with 3.9 ml solution of DPPH (100 μMolar) and reacted while protected from light at room temperature for 30 min. Absorbance was determined at 517 nm against ethanol.
10 mM of amino acid and/or 10 mM sugar were dissolved in 10 ml 0.1 mM KH2PO4-buffer, pH=7.8.
The samples were kept at 100° C. in sealed glass vials (Pyrex 15 ml with screw caps) for 0 (before reaction), 2.5 or 5.0 hours. Thereafter the samples were transferred to an ice water bath and cooled down to room temperature. These samples were diluted 1:10 and used for the test assay for anti-oxidant potential.

[4] = Sensory evaluation of GSGs and SGs, thaumatin, NHDC and combinations in water (Example 255); conditions: combinations of EPCalin and NHDC in water, concentrations as in the sample name
Procedure: 4.5 ppm Thaumatin (equivalent to 10 ppm EPCalin) was dissolved in water. Increasing amounts of NHDC (1-5 ppm) were added to the solution and the sensory properties were evaluated.
50 ppm (GSGs and SGs) were dissolved in water. Increasing amounts of NHDC (1-5 ppm) were added to the solution and the sensory properties were evaluated.
50 ppm (GSGs and SGs) and 4.5 ppm Thaumatin (equivalent to 10 ppm EPCalin) were dissolved in water. Increasing amounts of NHDC (1-5 ppm) were added to the solution and the sensory properties were evaluated.

[5] = Table 52.5, 1 ml water + 9 ml Glycerin, 2.0 h, 120° C. (Table 50.5)
[6] = Table 52.6, Glycerin, 10 ml, 100° C., 40 min (Table 50.6)
[7] = Table 52.7, Glycerin, 10 ml, 1 h, 120° C. (Table 50.7)
[8] = Table 52.3, 1 ml water + 9 ml Glycerin, 0.67 h, 100° C. (Table 50.3)
[9] = reaction of Phe and Gluc, pH = 5.5
[10] = reaction of Phe and Gluc, pH = 7.0
[11] = reaction of Phe and Gluc, pH = 8.5
[12] = reaction of Phe and Reb-A, pH = 5.5
[13] = reaction of Phe and Reb-A, pH = 7.0
[14] = reaction of Phe and Reb-A, pH = 8.5
[15] = Table 52.2, 1 ml water + 9 ml Glycerin, 0.67 h, 100° C. (Table 50.2)
[16] = Table 52.1, 1 ml water + 9 ml Glycerin, 1 h, 100° C. (Table 50.1)

SMILES: O=C[C@H](O)[C@H]1OC(=O)[C@@H](O)[C@H]1O [0.1 mMol GlucLac]
- Intensity of Smell (panel of four people; [5]): +++
- Smell (panel of four people; [5]): Burnt sugar
- Taste (panel of four people; [5]): Bitter

SMILES: OC[C@H]1OC(O)[C@H](O)[C@@H](O)[C@@H]1O (stereo partly shown) [10 mMol Glu]
- Smell (panel of four people; [6]): Slightly Caramel
- Smell (panel of four people; [7]): Slightly Caramel

SMILES: NCCCC[C@H](N)C(=O)O [0.1 mMol Lys]
- Smell (panel of four people; [8]): Popcorn
- Taste (panel of four people; [8]): Sweet

SMILES: NC(Cc1ccccc1)C(=O)O (single isomer, unassigned) [Phe]
- Smell (3 persons): Caramel, burnt
- Taste (3 persons): sweet
- % degradation [1, 9]: 2.26%
- % degradation [1, 10]: 2.18%
- % degradation [1, 11]: 4.24%
- % degradation [1, 12]: 1.97%
- % degradation [1, 13]: 9.07%
- % degradation [1, 14]: 12.8%
- % degradation ([1]; reaction of Phe and Suc, pH = 5.5): 5.50%
- % degradation ([1]; reaction of Phe and Suc, pH = 7.0): 5.19%
- % degradation ([1]; reaction of Phe and Suc, pH = 8.5): 5.36%
- % degradation ([1]; reaction of Phe and Xyl, pH = 5.5): 4.24%
- % degradation ([1]; reaction of Phe and Xyl, pH = 7.0): 4.80%
- % degradation ([1]; reaction of Phe and Xyl, pH = 8.5): 9.89%

SMILES: N[C@@H](Cc1ccccc1)C(=O)O [0.1 mMol Phe]
- Taste (panel of four people; [15]): sweet
- Intensity of Smell (panel of four people; [5]): +
- Smell (panel of four people; [5]): Caramel, burnt
- Taste (panel of four people; [5]): sweet

SMILES: C=C1C[C@@]23CC[C@H]4[C@@](C)(CCC[C@@]4(C)C(=O)O[C@@H]4O[C@H](CO)[C@@H](O)[C@H](O)[C@H]4O)[C@@H]2CC[C@]1(O[C@@H]1O[C@H](CO)[C@@H](O)[C@H](O[C@@H]2O[C@H](CO)[C@@H](O)[C@H](O)[C@H]2O)[C@H]1O[C@@H]1O[C@H](CO)[C@@H](O)[C@H](O)[C@H]1O)C3 [Reb-A, Rebaudioside A, reference compound]
- % degradation [1, 12]: 8.25%
- % degradation [1, 13]: 10.1%
- % degradation [1, 14]: 12.6%
- active iron-III reduction (anti-oxidant properties) [2]: substantial anti-oxidant properties
- radical scavenging properties (anti-oxidant properties) [3]: substantial anti-oxidant properties

SMILES: N[C@@H](Cc1ccccc1)C(=O)O [3.3 mMol Phe]
- Smell (panel of four people; Table 52.6, Glycerin, 10 ml, 100° C., 5 min (Table 50.6)): Slightly bloomy
- Smell (panel of four people; Table 52.6, Glycerin, 10 ml, 100° C., 10 min (Table 50.6)): flowery/bloomy
- Smell (panel of four people; Table 52.6, Glycerin, 10 ml, 100° C., 20 min (Table 50.6)): flowery/bloomy
- Smell (panel of four people; [6]): flowery/bloomy
- Smell (panel of four people; [7]): flowery/bloomy

SMILES: COc1ccc(CCC(=O)c2c(O)cc(O[C@@H]3O[C@H](CO)[C@@H](O)[C@H](O)[C@H]3O[C@@H]3O[C@@H](C)[C@H](O)[C@@H](O)[C@H]3O)cc2O)cc1O [10 ppm NHDC]
- Sensory evaluation [4]: Sweet, steep onset of sweetness, no lingering

SMILES: C=C1C[C@@]23CC[C@H]4[C@@](C)(CCC[C@@]4(C)C(=O)O[C@@H]4O[C@H](CO)[C@@H](O)[C@H](O)[C@H]4O)[C@@H]2CC[C@]1(O[C@@H]1O[C@H](CO)[C@@H](O)[C@H](O[C@@H]2O[C@H](CO)[C@@H](O)[C@H](O)[C@H]2O)[C@H]1O[C@@H]1O[C@H](CO)[C@@H](O)[C@H](O)[C@H]1O)C3 [0.05 mMol Reb-A]
- Smell (panel of four people; [15]): neutral/unpleasant
- Taste (panel of four people; [15]): sweet

SMILES: N[C@@H](CCC(=O)O)C(=O)O [167 mMol Glu]
- Smell (panel of four people; [16]): caramel
- Taste (panel of four people; [16]): Sweet

SMILES: C[C@H](N)C(=O)O [0.1 mMol Ala]
- Smell (panel of four people; [15]): Agar
- Taste (panel of four people; [15]): sweet

SMILES: OC[C@H]1OC(O)[C@H](O)[C@@H](O)[C@@H]1O (stereo partly shown) [Glu]
- Smell (3 persons): Burnt sugar
- Taste (3 persons): Sweet/bitter
- % degradation [1, 9]: 3.65%
- % degradation [1, 10]: 4.6%
- % degradation [1, 11]: 7.62%

SMILES: N[C@@H](Cc1ccccc1)C(=O)O [Phe 60 mMol]
- Smell (panel of four people; [16]): flowery/bloomy-caramel
- Taste (panel of four people; [16]): Sweet
